Patent publication US12503461B2, “Pesticidally active heterocyclic derivatives with sulfur and sulfoximine containing substituents” (SYNGENTA CROP PROTECTION AG, priority 2019, dated 2025)

Experiments:
Assay type in all cases: in vivo
[1] = system: Diabrotica balteata (Corn Root Worm); test: Example B1: Diabrotica balteata (corn root worm), sprayed maize sprouts on agar, L2 larvae; settings: 96 h, application rate of 200 ppm, 4 days after infestation, in comparison to untreated samples, read-out: effect in at least one of the two categories (mortality or growth inhibition)
Procedure: Example B1: Diabrotica balteata (Corn Root Worm
Maize sprouts placed onto an agar layer in 24-well microtiter plates were treated with aqueous test solutions prepared from 10′000 ppm DMSO stock solutions by spraying. After drying, the plates were infested with L2 larvae (6 to 10 per well). The samples were assessed for mortality and growth inhibition in comparison to untreated samples 4 days after infestation.

[2] = system: Euschistus heros (Neotropical Brown Stink Bug); test: Example B2: Euschistus heros (neotropical brown stink bug), sprayed soybean leaves, N2 nymphs; settings: 120 h, application rate of 200 ppm, 5 days after infestation, in comparison to untreated samples, read-out: effect in at least one of the two categories (mortality or growth inhibition)
Procedure: Example B2: Euschistus heros (Neotropical Brown Stink Bug
Soybean leaves on agar in 24-well microtiter plates were sprayed with aqueous test solutions prepared from 10′000 ppm DMSO stock solutions. After drying the leaves were infested with N2 nymphs. The samples were assessed for mortality and growth inhibition in comparison to untreated samples 5 days after infestation.

[3] = system: Spodoptera littoralis (Egyptian Cotton Leaf Worm); test: Example B7: Spodoptera littoralis (Egyptian cotton leaf worm), sprayed cotton leaf discs, L1 larvae; settings: foliar, 72 h, application rate of 200 ppm, 3 days after infestation, in comparison to untreated samples
Procedure: Example B7: Spodoptera littoralis (Egyptian Cotton Leaf Worm
Cotton leaf discs were placed onto agar in 24-well microtiter plates and sprayed with aqueous test solutions prepared from 10′000 ppm DMSO stock solutions. After drying the leaf discs were infested with five L1 larvae. The samples were assessed for mortality, anti-feeding effect, and growth inhibition in comparison to untreated samples 3 days after infestation. Control of Spodoptera littoralis by a test sample is given when at least one of the categories mortality, anti-feedant effect, and growth inhibition is higher than the untreated sample.

[4] = system: Plutella xylostella (Diamond Back Moth); test: Example B4: Plutella xylostella (diamond back moth), treated artificial diet, eggs; settings: 192 h, application rate of 200 ppm, 8 days after infestation, in comparison to untreated samples, read-out: effect in at least one of the two categories (mortality or growth inhibition)
Procedure: Example B4: Plutella xylostella (Diamond Back Moth
24-well microtiter plates with artificial diet were treated with aqueous test solutions prepared from 10′000 ppm DMSO stock solutions by pipetting. After drying, Plutella eggs were pipetted through a plastic stencil onto a gel blotting paper and the plate was closed with it. The samples were assessed for mortality and growth inhibition in comparison to untreated samples 8 days after infestation.

CCN=S(=O)(c1ccc2oc(-c3ncc(C4(C#N)CC4)cc3S(=O)(=O)CC)nc2c1)C(F)(F)F (stereo not drawn) [P8, 1-[5-ethylsulfonyl-6-[5-[N-ethyl-S-(trifluoromethyl)sulfonimidoyl]-1,3-benzoxazol-2-yl]-3-pyridyl]cyclopropanecarbonitrile]
≥ 80%: percent effect (mortality or growth inhibition) at 200 ppm [1] | effect (mortality or growth inhibition) at 200 ppm [2] | percent control (mortality, anti-feeding effect or growth inhibition) at 200 ppm [3] | percent effect (mortality or growth inhibition) at 200 ppm [4]

CCN=S(=O)(c1ccc2oc(-c3ncc(Oc4ccccn4)cc3S(=O)(=O)CC)nc2c1)C(F)(F)F (stereo not drawn) [P10, ethylimino-[2-[3-ethylsulfonyl-5-(2-pyridyloxy)-2-pyridyl]-1,3-benzoxazol-5-yl]-oxo-(trifluoromethyl)-λ^6-sulfane]
≥ 80%: percent effect (mortality or growth inhibition) at 200 ppm [1] | effect (mortality or growth inhibition) at 200 ppm [2] | percent control (mortality, anti-feeding effect or growth inhibition) at 200 ppm [3] | percent effect (mortality or growth inhibition) at 200 ppm [4]

CCS(=O)(=O)c1cccnc1-c1nc2cc(S(=N)(=O)C(F)(F)F)ccc2o1 (stereo not drawn) [P16, [2-(3-ethylsulfonyl-2-pyridyl)-1,3-benzoxazol-5-yl]-imino-oxo-(trifluoromethyl)-λ^6-sulfane]
≥ 80%: percent effect (mortality or growth inhibition) at 200 ppm [1] | effect (mortality or growth inhibition) at 200 ppm [2] | percent control (mortality, anti-feeding effect or growth inhibition) at 200 ppm [3] | percent effect (mortality or growth inhibition) at 200 ppm [4]

CCN=S(=O)(c1ccc2oc(-c3ncc(OCC(F)(F)F)cc3S(=O)(=O)CC)nc2c1)C(F)(F)F (stereo not drawn) [P22, ethylimino-[2-[3-ethylsulfonyl-5-(2,2,2-trifluoroethoxy)-2-pyridyl]-1,3-benzoxazol-5-yl]-oxo-(trifluoromethyl)-λ^6-sulfane]
≥ 80%: percent effect (mortality or growth inhibition) at 200 ppm [1] | effect (mortality or growth inhibition) at 200 ppm [2] | percent control (mortality, anti-feeding effect or growth inhibition) at 200 ppm [3] | percent effect (mortality or growth inhibition) at 200 ppm [4]

CCS(=O)(=O)c1cc(OCC(F)(F)F)cnc1-c1nc2cc(S(=O)(=NC(C)=O)C(F)(F)F)ccc2o1 (stereo not drawn) [P24, N-[[2-[3-ethylsulfonyl-5-(2,2,2-trifluoroethoxy)-2-pyridyl]-1,3-benzoxazol-5-yl]-oxo-(trifluoromethyl)-λ^6-sulfanylidene]acetamide]
≥ 80%: percent effect (mortality or growth inhibition) at 200 ppm [1] | effect (mortality or growth inhibition) at 200 ppm [2] | percent control (mortality, anti-feeding effect or growth inhibition) at 200 ppm [3] | percent effect (mortality or growth inhibition) at 200 ppm [4]

CCS(=O)(=O)c1cc(Oc2ccccn2)cnc1-c1nc2cc(S(=O)(=NC(C)=O)C(F)(F)F)ccc2o1 (stereo not drawn) [P25, N-[[2-[3-ethylsulfonyl-5-(2-pyridyloxy)-2-pyridyl]-1,3-benzoxazol-5-yl]-oxo-(trifluoromethyl)-λ^6-sulfanylidene]acetamide]
≥ 80%: percent effect (mortality or growth inhibition) at 200 ppm [1] | effect (mortality or growth inhibition) at 200 ppm [2] | percent control (mortality, anti-feeding effect or growth inhibition) at 200 ppm [3] | percent effect (mortality or growth inhibition) at 200 ppm [4]

CCS(=O)(=O)c1cc(C2(C#N)CC2)cnc1-c1nc2cc(S(=O)(=NC3CC3)C(F)(F)F)ccc2o1 (stereo not drawn) [P30, 1-[6-[5-[N-cyclopropyl-S-(trifluoromethyl)sulfonimidoyl]-1,3-benzoxazol-2-yl]-5-ethylsulfonyl-3-pyridyl]cyclopropanecarbonitrile]
≥ 80%: percent effect (mortality or growth inhibition) at 200 ppm [1] | percent control (mortality, anti-feeding effect or growth inhibition) at 200 ppm [3] | percent effect (mortality or growth inhibition) at 200 ppm [4]

CCS(=O)(=O)c1cc(C2(C#N)CC2)cnc1-c1nc2cc(S(=O)(=NC3CC3)C(F)(F)F)ccc2n1C (stereo not drawn) [P31, 1-[6-[5-[N-cyclopropyl-S-(trifluoromethyl)sulfonimidoyl]-1-methyl-benzimidazol-2-yl]-5-ethylsulfonyl-3-pyridyl]cyclopropanecarbonitrile]
≥ 80%: percent effect (mortality or growth inhibition) at 200 ppm [1] | effect (mortality or growth inhibition) at 200 ppm [2] | percent effect (mortality or growth inhibition) at 200 ppm [4]

CCS(=O)(=O)c1cc(-n2ccc(Cl)n2)cnc1-c1nc2cc(S(=N)(=O)C(F)(F)F)ccc2o1 (stereo not drawn) [P37, [2-[5-(3-chloropyrazol-1-yl)-3-ethylsulfonyl-2-pyridyl]-1,3-benzoxazol-5-yl]-imino-oxo-(trifluoromethyl)-λ^6-sulfane]
≥ 80%: percent effect (mortality or growth inhibition) at 200 ppm [1] | percent control (mortality, anti-feeding effect or growth inhibition) at 200 ppm [3] | percent effect (mortality or growth inhibition) at 200 ppm [4]

CCN=S(=O)(c1ccc2oc(-c3ncc(-n4ccc(Cl)n4)cc3S(=O)(=O)CC)nc2c1)C(F)(F)F (stereo not drawn) [P38, [2-[5-(3-chloropyrazol-1-yl)-3-ethylsulfonyl-2-pyridyl]-1,3-benzoxazol-5-yl]-ethylimino-oxo-(trifluoromethyl)-λ^6-sulfane]
≥ 80%: percent effect (mortality or growth inhibition) at 200 ppm [1] | percent control (mortality, anti-feeding effect or growth inhibition) at 200 ppm [3] | percent effect (mortality or growth inhibition) at 200 ppm [4]

CCN=S(=O)(c1ccc2oc(-c3ncc(-c4nccc(C(F)(F)F)n4)cc3S(=O)(=O)CC)nc2c1)C(F)(F)F (stereo not drawn) [P41, ethylimino-[2-[3-ethylsulfonyl-5-[4-(trifluoromethyl)pyrimidin-2-yl]-2-pyridyl]-1,3-benzoxazol-5-yl]-oxo-(trifluoromethyl)-λ^6-sulfane]
≥ 80%: percent effect (mortality or growth inhibition) at 200 ppm [1] | percent control (mortality, anti-feeding effect or growth inhibition) at 200 ppm [3] | percent effect (mortality or growth inhibition) at 200 ppm [4]

CCN=S(=O)(c1ccc2oc(-c3ncc(-c4ncc(Cl)cn4)cc3S(=O)(=O)CC)nc2c1)C(F)(F)F (stereo not drawn) [P43, [2-[5-(5-chloropyrimidin-2-yl)-3-ethylsulfonyl-2-pyridyl]-1,3-benzoxazol-5-yl]-ethylimino-oxo-(trifluoromethyl)-λ^6-sulfane]
≥ 80%: percent effect (mortality or growth inhibition) at 200 ppm [1] | percent control (mortality, anti-feeding effect or growth inhibition) at 200 ppm [3] | percent effect (mortality or growth inhibition) at 200 ppm [4]

CCS(=O)(=O)c1ccc(-n2cnc(Cl)n2)nc1-c1nc2cc(S(=N)(=O)C(F)(F)F)ccc2n1C (stereo not drawn) [P46, [2-[6-(3-chloro-1,2,4-triazol-1-yl)-3-ethylsulfonyl-2-pyridyl]-1-methyl-benzimidazol-5-yl]-imino-oxo-(trifluoromethyl)-λ^6-sulfane]
≥ 80%: percent effect (mortality or growth inhibition) at 200 ppm [1] | percent control (mortality, anti-feeding effect or growth inhibition) at 200 ppm [3] | percent effect (mortality or growth inhibition) at 200 ppm [4]

CCN=S(=O)(c1ccc2c(c1)nc(-c1nc(-n3cnc(Cl)n3)ccc1S(=O)(=O)CC)n2C)C(F)(F)F (stereo not drawn) [P47, [2-[6-(3-chloro-1,2,4-triazol-1-yl)-3-ethylsulfonyl-2-pyridyl]-1-methyl-benzimidazol-5-yl]-ethylimino-oxo-(trifluoromethyl)-λ^6-sulfane]
≥ 80%: percent effect (mortality or growth inhibition) at 200 ppm [1] | percent control (mortality, anti-feeding effect or growth inhibition) at 200 ppm [3] | percent effect (mortality or growth inhibition) at 200 ppm [4]

CCS(=O)(=O)c1ccc(-n2cnc(C(F)(F)F)n2)nc1-c1nc2cc(S(=N)(=O)C(F)(F)F)ccc2n1C (stereo not drawn) [P48, [2-[3-ethylsulfonyl-6-[3-(trifluoromethyl)-1,2,4-triazol-1-yl]-2-pyridyl]-1-methyl-benzimidazol-5-yl]-imino-oxo-(trifluoromethyl)-λ^6-sulfane]
≥ 80%: percent effect (mortality or growth inhibition) at 200 ppm [1] | percent control (mortality, anti-feeding effect or growth inhibition) at 200 ppm [3] | percent effect (mortality or growth inhibition) at 200 ppm [4]

CCN=S(=O)(c1ccc2c(c1)nc(-c1nc(-n3cnc(C(F)(F)F)n3)ccc1S(=O)(=O)CC)n2C)C(F)(F)F (stereo not drawn) [P49, ethylimino-[2-[3-ethylsulfonyl-6-[3-(trifluoromethyl)-1,2,4-triazol-1-yl]-2-pyridyl]-1-methyl-benzimidazol-5-yl]-oxo-(trifluoromethyl)-λ^6-sulfane]
≥ 80%: percent effect (mortality or growth inhibition) at 200 ppm [1] | percent control (mortality, anti-feeding effect or growth inhibition) at 200 ppm [3] | percent effect (mortality or growth inhibition) at 200 ppm [4]

CCS(=O)(=O)c1ccc(-c2ncccn2)nc1-c1nc2cc(S(=N)(=O)C(F)(F)F)ccc2o1 (stereo not drawn) [P54, [2-(3-ethylsulfonyl-6-pyrimidin-2-yl-2-pyridyl)-1,3-benzoxazol-5-yl]-imino-oxo-(trifluoromethyl)-λ^6-sulfane]
≥ 80%: percent effect (mortality or growth inhibition) at 200 ppm [1] | percent control (mortality, anti-feeding effect or growth inhibition) at 200 ppm [3] | percent effect (mortality or growth inhibition) at 200 ppm [4]

CCN=S(=O)(c1ccc2oc(-c3nc(-c4ncccn4)ccc3S(=O)(=O)CC)nc2c1)C(F)(F)F (stereo not drawn) [P55, ethylimino-[2-(3-ethylsulfonyl-6-pyrimidin-2-yl-2-pyridyl)-1,3-benzoxazol-5-yl]-oxo-(trifluoromethyl)-λ^6-sulfane]
≥ 80%: percent effect (mortality or growth inhibition) at 200 ppm [1] | percent control (mortality, anti-feeding effect or growth inhibition) at 200 ppm [3] | percent effect (mortality or growth inhibition) at 200 ppm [4]
